Common to all, as to assay: DTP human tumour cell line panel, 48 h
Assay [1] concerns HT29 colon.
Assay [2] relates to SNB-19 CNS.
For assay [3], the system named is HOP-92 NSCLC.
The subject of assay [4] is U251 CNS.
The subject of assay [5] is MALME-3M melanoma.
In assay [6] the test system is NCI-H226 lung.
For assay [7], the system named is NCI-H23 lung.
Assay [8] deals with UACC-62 melanoma.
Assay [9] has as its system KM12 colon.
Assay [10] deals with NCI/ADR-RES ovarian.

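Five compound concentrations were applied to cells in 96-well plates for 48 hours; endpoints were derived by simple linear interpolation of the resulting dose-response curve. TGI: concentration producing complete growth inhibition.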

`Cc1cc(C)nc(SC(C)C(=O)N/N=C/c2ccc(OCc3ccccc3)cc2)n1` (stereo not given): the concentration for total growth inhibition (TGI) is over 100 µM in assay [1]; over 100 µM in [2]; over 100 µM in [3]; over 100 µM in assay [4]; over 100 µM in [5]; 93.5 µM in assay [6]. Besides, the concentration for total growth inhibition (TGI) is over 100 µM in [7], 92.5 µM in assay [8], over 100 µM in assay [9] and over 100 µM in assay [10].

For `O=c1[nH]c(Nc2cc(Cl)cc(Cl)c2)nc2nc[nH]c12`, the TGI in assay [1], in [2], in [3], in assay [4], in assay [5] and in assay [6] was over 75 µM each time. The TGI in [7], in [8], in [9] and in assay [10] was over 75 µM in each case.

Consider `COc1ccc(/C=C2\CCC(CNc3ccc(OC)cc3)C2=O)cc1` (stereo not given), for which the TGI in [1] is 33.2 µM; in assay [2], over 59.2 µM; in [3], 42.7 µM; in assay [4], 38.5 µM; in assay [5], 47.3 µM; in assay [6], over 100 µM. Besides, the TGI was 19 µM in [7], 48 µM in [8], 23.8 µM in assay [9] and over 100 µM in assay [10].

In the case of `COc1ccc2sc(-n3nc4ccccc4c3Nc3nc4ccc(OC)cc4s3)nc2c1`, the TGI in [1] came to 14.7 µM; in [2], 9.26 µM; in assay [3] it was 15.5 µM; in assay [4], 11 µM; in [5], 14.8 µM; in assay [6], 13.9 µM. For the same molecule, the TGI in [7] is 5.25 µM; in [8], 10.8 µM; in assay [9], 25.5 µM; in [10] it was 10.4 µM.

As to `O=C(O)c1cn2c3c(cc(N4CCN(CCO)CC4)cc3c1=O)SCC2`, the concentration for total growth inhibition (TGI) in assay [1], in assay [2], in [3], in assay [4], in assay [5] and in [6] was over 100 µM in each case. Besides, the TGI in [7], in assay [8], in [9] and in assay [10] was over 100 µM in each case.

For `CCn1cc(C(=O)O)c(=O)c2cc3c(cc21)S(=O)(=O)CC3`, the total growth inhibition concentration (TGI) in [1], in assay [2], in assay [3], in assay [4], in assay [5] and in assay [6] was over 100 µM throughout. Further, the TGI in assay [7], in assay [8], in [9] and in [10] was over 100 µM throughout.

On to `O=C1CCC(=O)N1n1c(Cc2ccc(Cl)cc2)n[nH]c1=O`, for which the TGI in assay [1], in [2], in assay [3], in [4], in [5] and in [6] was over 100 µM each time. Besides, the TGI in assay [7], in assay [8], in assay [9] and in assay [10] was over 100 µM in each case.

With `O=C1[C@@H]2[C@@H](c3ccccc3)[C@]2(Cl)C(=O)[C@H]2[C@H](c3ccccc3)[C@@]12Cl`, the TGI in [1], in [2], in assay [3], in [4], in assay [5] and in assay [6] was over 100 µM throughout. The TGI in assay [7], in assay [8], in assay [9] and in assay [10] was over 100 µM throughout.

Take `Cc1cc(Cc2c(F)c(F)c(C(c3cc(C)no3)c3c(F)c(F)c(F)c(F)c3F)c(F)c2F)on1` (stereo not given): the TGI in assay [1], in assay [2], in assay [3], in assay [4], in assay [5] and in [6] was over 100 µM each time. Further, the total growth inhibition concentration (TGI) in [7], in assay [8], in [9] and in assay [10] was over 100 µM in each case.

Consider `CCCCN1C(=O)c2c(-c3sccc3N)sc(-c3sccc3N)c2C1=O`, for which the TGI in [1] was 44.5 µM; in assay [2], 44.2 µM; in [3] it was over 100 µM; in [4], 51.6 µM; in [5], over 100 µM; in assay [6], 42.7 µM. The TGI was over 100 µM in assay [7], over 64.6 µM in assay [8], over 100 µM in assay [9] and over 83.2 µM in assay [10].

Take `Nc1nc(N)c2ncn(Cc3ccccc3CCl)c2n1`: the TGI in assay [1], in [2], in [3], in assay [4], in assay [5] and in assay [6] was over 100 µM in each case. For the same molecule, the TGI in [7], in [8], in [9] and in [10] was over 100 µM throughout.

`CC1OC(O[C@H]2C3C=CO[C@@H](OC4OC(CO)C(O)C(O)C4O)C3[C@@]3(COC(=O)/C=C/c4ccc(O)cc4)O[C@@H]23)C(O)C(O)C1O` (stereo not given in full): the TGI in assay [1], in assay [2], in [3], in assay [4], in assay [5] and in assay [6] was over 100 µM each time. Moreover, the TGI in [7], in assay [8], in assay [9] and in assay [10] was over 100 µM each time.

With `COC(=O)C1CCC(=O)N1C(c1ccc(OC)cc1)c1ccc(OC)cc1` (stereo not given), the TGI in assay [1], in assay [2], in assay [3], in assay [4], in [5] and in assay [6] was over 100 µM throughout. The TGI in assay [7], in assay [8], in assay [9] and in assay [10] was over 100 µM throughout.

As usually defined, the TGI is the concentration at which net growth stops. Higher therefore signals less potent growth arrest.

(Values after PubChem BioAssay (NCI).)
